The record followed here is patent US6429204B1, “Method of inhibiting cancer growth” (University of Miami, priority 1997, dated 2002).

One data set relates to MAT LyLu cells. Description: Soluble nucleosome ELISA (programmed cell death), MAT LyLu. The class given is cell-based, rat. Here is the method:
An investigation of the cytotoxicity of chemically modified tetracycline compounds for cancer cells was undertaken to determine involvement of programmed cell death (apoptosis) (see Duke et al. 1986). MAT LyLu cells were incubated with various concentration of CMT-3 and doxycycline. Conditioned media were assayed for soluble nucleosomes, resulting from internucleosomal DNA strand breaks, using the Cell Death Detection ELISA Plus kit from Boehringer Mannheim GmbH (Catalog No. 1774425) according to the manufacturer's instructions. In the dosage-dependence trials, cells were incubated with the tetracycline compounds for 48 hr, and then media were collected. In the time trials, the cells were exposed to the tetracycline compounds for specific periods of time from 0 to 48 hr, and if appropriate were maintained in fresh media until 48 hr from the start of the experiment at which time media were collected.
On the technique in general: In an ELISA, binding on a coated surface is turned into a signal by an enzyme label.

For data set [1], the system named is HIV-related Kaposi's Sarcoma. Description: Oral dose escalation study in patients with Kaposi's Sarcoma. The class given is in vivo, human. Here is the method: CMT-3 was administered orally, once daily, in a dose escalating fashion to 3-6 subjects per dose cohort. Patients with symptomatic visceral Kaposi's Sarcoma or severe tumor-associated edema were excluded. Antiretroviral therapy was permitted but not required. Study endpoints were grade 3 or grade 4 toxicity or progression of disease. Preliminary analysis was performed. Eighteen patients received CMT-3 in dosing cohorts of 25, 50 and 70 mg/m^2/day. The average age was 39 years (range, 25-57). Median CD4 count was 352 cells/mm^3 (range, 6-694). Prior therapy for Kaposi's Sarcoma was reported by 16 (89%) patients; prior antiretroviral therapy by 16 (89%) patients. Half of the patients had ≧50 lesions at baseline. Grade 3 or higher events, which were possibly/definitely related to study drug, were reported by 6 patients and consisted of photosensitivity, increased pain, headache, rash and pruritis.

In a further data set the target is T1, Gelatinase A (Homo sapiens, UniProt P08253).
T1 construct: endogenous in cells; host or cells: C8161
T1 sequence (P08253 110-660): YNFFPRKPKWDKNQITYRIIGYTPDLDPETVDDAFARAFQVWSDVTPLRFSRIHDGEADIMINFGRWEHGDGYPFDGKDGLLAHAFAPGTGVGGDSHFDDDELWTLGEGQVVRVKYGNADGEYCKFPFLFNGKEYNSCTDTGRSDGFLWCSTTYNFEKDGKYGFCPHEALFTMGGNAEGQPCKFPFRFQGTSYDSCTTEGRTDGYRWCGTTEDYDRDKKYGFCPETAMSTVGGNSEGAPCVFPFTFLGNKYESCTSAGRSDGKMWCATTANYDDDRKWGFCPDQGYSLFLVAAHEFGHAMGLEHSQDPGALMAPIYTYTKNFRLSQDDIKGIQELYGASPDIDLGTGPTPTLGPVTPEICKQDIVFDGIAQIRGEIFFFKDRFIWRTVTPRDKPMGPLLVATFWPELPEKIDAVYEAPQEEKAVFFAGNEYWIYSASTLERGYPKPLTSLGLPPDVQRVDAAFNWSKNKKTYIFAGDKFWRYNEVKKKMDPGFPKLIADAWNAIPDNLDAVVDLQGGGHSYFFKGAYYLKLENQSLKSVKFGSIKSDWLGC
Description: Zymography with densitometry of C8161 conditioned medium, gelatinase A. Type of data set: cell-based. As to conditions: 50 μg/mL, 24 hr. The procedure: Six hundred thousand (6×10^5) C8161 cells were seeded per well in a 12-well dish coated with a laminin/collagen IV/gelatin matrix in DMEM plus Mito+ and 0.1% gentamicin sulfate. After approximately 1 hr incubation to allow the cells to attach, 50 μg/mL of either doxycycline or one of the other CMTs was added per well and the dish then placed in a 37° C. humidified 5% CO2 incubator. After 24 hr, the supernatants were removed and centrifuged to remove any cells or debris. One volume of Laemmli sample buffer minus reductant was added to two volumes of the medium, and this sample electrophoresed without prior heating or boiling on a 10% SDS-PAGE containing 0.1% gelatin (samples normalized based on the same number of cells per volume of medium per time of incubation). After electrophoresis, the gels were washed with gentle shaking at room temperature for 30 min in 50 mM Tris-HCl (pH 7.5) plus 2.5% TRITON® X100 plus 50 μg/mL of the corresponding CMT used in the original treatment. The gel was then placed in incubation buffer (50 mM Tris-Cl/10 mM CaCl2/150 mM NaCl/0.05% NaN3) also containing 50 μg/mL of the corresponding CMT, and incubated at 37° C. for 20-24 hr. The gels were stained with Coomassie BBR-250, then destained with 10% methanol/10% acetic acid in water until the wash remained clear. A photographic negative of the gel was digitized using a video camera and Snappy Video Snapshot system (Play Inc., Rancho Cordova, Calif.). An integrated density was determined for each of the cleared zones of proteolysis using the software ImagePC8α (freely available from the National Institutes of Health), and the corresponding changes in gelatinolytic activities reported compared to the control samples normalized to a value of 1.0.

For data set [2], the system named is MMP-9 (gelatinase B) expressed by E-10 cells. Description: MMP protein expression by Western blot of conditioned medium, E-10 cells. The class given is cell-based, human. The note with it: 24 hr, serum-free medium. Here is the method: (§1) Two human cancer-derived cell lines were obtained from the American Type Culture Collection (ATCC) in Rockville, Md. The cell lines included COLO 205, a human colon cancer-derived cell line that expresses MMP-2 or gelatinase A, and E-10, a human breast cancer-derived cell line that expresses MMP-9 or gelatinase B.
(§2) Cells of each cell line were cultured in 75 cm^2 T-flasks in RPMI-1640 (Gibco) with 10% heat-inactivated fetal bovine serum (FBS) containing 100 units/mL penicillin and 100 μg/mL streptomycin. The cells were fed every two days, and passaged every week. The cells were grown to 80-90% confluence, and then the FBS-containing medium was replaced with a serum-free medium (SFM). CMT-3 (CollaGenex Pharmaceuticals, Inc., Newtown, Pa.) was added in several concentrations to the cells in SFM. Conditioned medium was collected after 24 hr, centrifuged to remove cell debris, and then assayed for MMP protein expression by Western blot using a conventional technique, and scanning the blots with a laser densitometer.

The next data set in a line: Serum half-life. The class given is in vivo.
Data set [3] concerns MMP-2 (gelatinase A) expressed by COLO 205 cells. Description: MMP protein expression by Western blot of conditioned medium, COLO 205 cells. Type of data set: cell-based, human. As to conditions: 24 hr, serum-free medium. Here is the method: as §1, §2
For orientation: A western blot detects proteins with antibodies after separation by electrophoresis.

`NC(=O)C1=C(O)CC2CC3Cc4cccc(O)c4C(=O)C3=C(O)C2(O)C1=O` (stereo not drawn) [CMT-3, 6-demethyl-6-deoxy-4-de(dimethylamino)tetracycline]: the “programmed cell death response after brief exposure” value with MAT LyLu cells (4 hr at 5 μg/mL or 10 μg/mL) was “sufficient to elicit a putative programmed cell death response”. In the data set with MAT LyLu cells (dosage-dependence, 48 hr), the “soluble nucleosomes / programmed cell death induction” value was “dose-dependent increase in soluble nucleosomes”. The Partial responses in data set [1] (25 mg/m^2/day cohort) is listed as 2 patients; in data set [1] (50 mg/m^2/day cohort), 2 patients; in data set [1] (70 mg/m^2/day cohort) it was 3 patients; in data set [1] (all cohorts, eighteen patients, oral once daily), 7 patients. In addition, the photosensitivity entry in data set [1] (25 mg/m^2/day cohort) is “no photosensitivity was observed”. Besides, the “Grade 3 or higher events possibly/definitely related to study drug” value in data set [1] (eighteen patients, 25, 50 and 70 mg/m^2/day) turned out to be 6 patients. For the same molecule, the tolerability result in data set [1] (oral once daily, particularly 25 mg/m^2/day) is listed as “well tolerated”. On Gelatinase A, the “Gelatinase A, integrated density normalized to control 1.00” value is given as 0.22. Moreover, the “Percent Inhibition of MMP Protein Expression” value was 45.3% in data set [2] (E-10, MMP-9, 10 μM); 60.8% in data set [2] (E-10, MMP-9, 20 μM); 13.3% in data set [3] (COLO 205, MMP-2, 10 μM); 66.9% in data set [3] (COLO 205, MMP-2, 20 μM). Besides, the half-life (commonly the time in which the quantity being followed falls by half) in the data set “Serum half-life” was approximately 28 h.
